Results published in patent US20220119411A1, “IMMUNOMODULATORS, COMPOSITIONS AND METHODS THEREOF” (BETTA PHARMACEUTICALS CO., LTD, priority 2018, published 2022).

Biological target: T1, PD-1/PD-L1 protein/protein interaction (Homo sapiens, UniProt Q9NZQ7)
T1 construct: Recombinant human PD-L1 protein (19-238) with a His-tag at the C-terminus; purchased AcroBiosystems PD1-H5229 (PD-L1); PD1-H5257 (PD-1)
Assay: PD-1/PD-L1 homogenous time-resolved fluorescence (HTRF) binding assay
Details: recombinant human PD-L1 (19-238)-His 10 nM, human PD-1 (25-167)-Fc 3 nM, 25° C., PBS pH 7.4
Experimental: Resolved Fluorescence (HTRF) Binding Assay
The assays were conducted in a standard black 384-well polystyrene plate with a final volume of 20 μL. Inhibitors were first serially diluted in DMSO and then added to the plate wells before the addition of other reaction components. The final concentration of DMSO in the assay was 1%. The assays were carried out at 25° C. in the PBS buffer (pH 7.4) with 0.05% Tween-20 and 0.1% BSA. Recombinant human PD-L1 protein (19-238) with a His-tag at the C-terminus was purchased from AcroBiosy stems (PD1-H5229). Recombinant human PD-1 protein (25-167) with Fc tag at the C-terminus was also purchased from AcroBiosystems (PD1-H5257). PD-L1 and PD-1 proteins were diluted in the assay buffer and 10 μL was added to the plate well. Plates were centrifuged and proteins were preincubated with inhibitors for 40 min. The incubation was followed by the addition of 10 μL of HTRF detection buffer supplemented with Europium cryptate-labeled anti-human IgG (PerkinElmer-AD0212) specific for Fc and anti-His antibody conjugated to SureLight®—Allophycocyanin (APC, PerkinElmer-AD0059H). After centrifugation, the plate was incubated at 25° C. for 60 min. Before reading on a PHERAstar FS plate reader (665 nm/620 nm ratio). Final concentrations in the assay were—3 nM PD1, 10 nM PD-L1, 1 nM europium anti-human IgG and 20 nM anti-His-Allophycocyanin. IC50 determination was performed by fitting the curve of percent control activity versus the log of the inhibitor concentration using the GraphPad Prism 5.0 software.
Data obtained for the Example compounds using the PD-1/PD-L1 homogenous time-resolved fluorescence (HTRF) binding assay described in Example A is provided in Table 2.

T1 sequence (Q9NZQ7 19-238): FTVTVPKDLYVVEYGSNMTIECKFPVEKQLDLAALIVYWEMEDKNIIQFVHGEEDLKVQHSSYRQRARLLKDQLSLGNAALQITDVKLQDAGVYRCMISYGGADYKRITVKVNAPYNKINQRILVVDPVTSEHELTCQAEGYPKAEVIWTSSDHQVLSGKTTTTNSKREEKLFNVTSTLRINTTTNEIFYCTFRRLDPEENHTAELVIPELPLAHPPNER

`Cc1ccccc1-c1cccc2c1CCN2C(=O)c1nc2c(s1)CN(CC(=O)O)CC2` [Example 5, 2-(2-(4-(o-tolyl)indoline-1-carbonyl)-6,7-dihydrothiazolo[5,4-c]pyridin-5(4H)-yl)acetic acid] gave an IC50 of 25 to 100 nM.

For `O=C(O)CN1CCc2nc(C(=O)N3CCc4c(-c5ccc(OCCCN6CCC(O)C6)cc5)cccc43)sc2C1` (centres unmarked) [Example 50, 2-(2-(4-(4-(3-(3-hydroxypyrrolidin-1-yl)propoxy)phenyl)indoline-1-carbonyl)-6,7-dihydrothiazolo[5,4-c]pyridin-5(4H)-yl)acetic acid], the IC50 was no more than 25 nM.

`O=C(O)CN1CCc2nc(C(=O)N3CCc4c(-c5ccccc5)cccc43)sc2C1` [Example 4, 2-(2-(4-phenylindoline-1-carbonyl)-6,7-dihydrothiazolo[5,4-c]pyridin-5(4H)-yl)acetic acid] showed an IC50 of no more than 25 nM.

In the case of `Cc1c(OCCCN2CCC(O)C2)cccc1-c1cccc2c1CCN2C(=O)c1nc2c(n1C)CCN(CC(=O)O)C2` (centres unmarked) [Example 37, 2-(2-(4-(3-(3-(3-hydroxypyrrolidin-1-yl)propoxy)-2-methylphenyl)indoline-1-carbonyl)-1-methyl-1,4,6,7-tetrahydro-5H-imidazo[4,5-c]pyridin-5-yl)acetic acid], the IC50 is reported as no more than 25 nM.

Compound `Cc1c(NC(=O)CCN2CCC(O)C2)cccc1-c1cccc2c1CCN2C(=O)c1nc2c(s1)CN(CC(=O)O)CC2` (centres unmarked) [Example 13, 2-(2-(4-(3-(3-(3-hydroxypyrrolidin-1-yl)propanamido)-2-methylphenyl)indoline-1-carbonyl)-6,7-dihydrothiazolo[5,4-c]pyridin-5(4H)-yl)acetic acid] has an IC50 of no more than 25 nM.

`COc1cccc(-c2cccc3c2CCN3C(=O)c2nc3c(s2)CN(CC(=O)O)CC3)c1` [Example 3, 2-(2-(4-(3-methoxyphenyl)indoline-1-carbonyl)-6,7-dihydrothiazolo[5,4-c]pyridin-5(4H)-yl)acetic acid] was tested, and the IC50 was no more than 25 nM.

Compound `Cc1c(Nc2nccc3cc(CN4CCCC[C@H]4C(=O)O)cnc23)cccc1-c1cccc2c1CCN2C(=O)c1nc2c(s1)CNCC2` [Example 58, (S)-1-((8-((2-methyl-3-(1-(4,5,6,7-tetrahydrothiazolo[5,4-c]pyridine-2-carbonyl)indolin-4-yl)phenyl)amino)-1,7-naphthyridin-3-yl)methyl)piperidine-2-carboxylic acid] has an IC50 of no more than 25 nM.

`O=C(O)CN1CCc2nc(C(=O)N3CCc4c(-c5cccc6c5CCN6CCCN5CCOCC5)cccc43)sc2C1` [Example 6, 2-(2-(1′-(3-morpholinopropyl)-[4,4′-biindoline]-1-carbonyl)-6,7-dihydrothiazolo[5,4-c]pyridin-5(4H)-yl)acetic acid] was tested, and the IC50 was no more than 25 nM.

`CN1CCc2nc(C(=O)N3CCc4c(-c5ccc6c(c5)OCCO6)cccc43)sc2C1` [Example 57, (4-(2,3-dihydrobenzo[b][1,4]dioxin-6-yl)indolin-1-yl)(5-methyl-4,5,6,7-tetrahydrothiazolo[5,4-c]pyridin-2-yl)methanone] gave an IC50 of no more than 25 nM.

Compound `O=C(c1cn2c(n1)CNCC2)N1CCc2c(-c3cccc4c3cnn4CCCN3CCOCC3)cccc21` [Example 47, (4-(1-(3-morpholinopropyl)-1H-indazol-4-yl)indolin-1-yl)(5,6,7,8-tetrahydroimidazo[1,2-a]pyrazin-2-yl)methanone] has an IC50 of 25 to 100 nM.

With `Cc1c(OCCCN2CCC(O)C2)cccc1-c1cccc2c1CCN2C(=O)c1nnc(CN)s1` (centres unmarked) [Example 43, (5-(aminomethyl)-1,3,4-thiadiazol-2-yl)(4-(3-(3-(3-hydroxypyrrolidin-1-yl)propoxy)-2-methylphenyl)indolin-1-yl)methanone] the IC50 was no more than 25 nM.

Work on `Cc1c(NC(=O)CCN2CCC(O)C2)cccc1-c1cccc2c1CCN2C(=O)c1nc2c(n1C)CN(CC(=O)O)CC2` (centres unmarked) [Example 33, 2-(2-(4-(3-(3-(3-hydroxypyrrolidin-1-yl)propanamido)-2-methylphenyl)indoline-1-carbonyl)-3-methyl-3,4,6,7-tetrahydro-5H-imidazo[4,5-c]pyridin-5-yl)acetic acid] yielded an IC50 of no more than 25 nM.

For `Cc1nc(C(=O)N2CCc3c(-c4cccc5c4CCN5C(=O)CCN4CCC(O)C4)cccc32)sc1CNCCO` (centres unmarked) [Example 46, 1-(1′-(5-(((2-hydroxyethyl)amino)methyl)-4-methylthiazole-2-carbonyl)-[4,4′-biindolin]-1-yl)-3-(3-hydroxypyrrolidin-1-yl)propan-1-one], the IC50 was no more than 25 nM.

`Cc1c(OCCCN2CCC(O)C2)cccc1-c1cccc2c1CCN2C(=O)c1nnc([C@@H]2CCCN2)s1` (stereo partly drawn) [Example 44, (4-(3-(3-(3-hydroxypyrrolidin-1-yl)propoxy)-2-methylphenyl)indolin-1-yl)(5-((S)-pyrrolidin-2-yl)-1,3,4-thiadiazol-2-yl)methanone] was tested, and the IC50 was no more than 25 nM.

`Cc1c(NC(=O)c2ccccn2)cccc1-c1cccc2c1CCN2C(=O)c1nc2c(s1)CN(CC(=O)O)CC2` [Example 27, 2-(2-(4-(2-methyl-3-(picolinamido)phenyl)indoline-1-carbonyl)-6,7-dihydrothiazolo[5,4-c]pyridin-5(4H)-yl)acetic acid] showed an IC50 of no more than 25 nM.

With `O=C(O)CN1CCc2nc(C(=O)N3CCc4c(-c5cccc(OCCCN6CCOCC6)c5)cccc43)sc2C1` [Example 15, 2-(2-(4-(3-(3-morpholinopropoxy)phenyl)indoline-1-carbonyl)-6,7-dihydrothiazolo[5,4-c]pyridin-5(4H)-yl)acetic acid] the IC50 was no more than 25 nM.

In the case of `Cc1c(NC(=O)c2nc3c(n2C)CCNC3)cccc1-c1cccc2c1CCN2C(=O)c1nc2c(s1)CN(CC(=O)O)CC2` [Example 32, 2-(2-(4-(2-methyl-3-(1-methyl-4,5,6,7-tetrahydro-1H-imidazo[4,5-c]pyridine-2-carboxamido)phenyl)indoline-1-carbonyl)-6,7-dihydrothiazolo[5,4-c]pyridin-5(4H)-yl)acetic acid], the IC50 is reported as no more than 25 nM.

In the case of `O=C(O)CN1CCc2nc(C(=O)N3CCc4c(-c5cccc(CCCCN6CCOCC6)c5)cccc43)sc2C1` [Example 16, 2-(2-(4-(3-(4-morpholinobutyl)phenyl)indoline-1-carbonyl)-6,7-dihydrothiazolo[5,4-c]pyridin-5(4H)-yl)acetic acid], the IC50 is reported as no more than 25 nM.

`Cc1c(Nc2nccc3nccnc23)cccc1-c1cccc2c1CCN2C(=O)c1nc2c(s1)CN(CC(=O)O)CC2` [Example 29, 2-(2-(4-(2-methyl-3-(pyrido[3,4-b]pyrazin-5-ylamino)phenyl)indoline-1-carbonyl)-6,7-dihydrothiazolo[5,4-c]pyridin-5(4H)-yl)acetic acid] was tested, and the IC50 was 25 to 100 nM.

With `O=C(O)CN1CCc2nc(C(=O)N3CCc4c(-c5cccc6c5CCN6CCN5CCC(O)C5)cccc43)sc2C1` (centres unmarked) [Example 12, 2-(2-(1′-(2-(3-hydroxypyrrolidin-1-yl)ethyl)-[4,4′-biindoline]-1-carbonyl)-6,7-dihydrothiazolo[5,4-c]pyridin-5(4H)-yl)acetic acid] the IC50 was no more than 25 nM.

`Cn1c(C(=O)N2CCc3c(-c4cccc5c4CCN5CCCN4CCC(O)C4)cccc32)nc2c1CCNC2` (centres unmarked) [Example 40, (1′-(3-(3-hydroxypyrrolidin-1-yl)propyl)-[4,4′-biindolin]-1-yl)(1-methyl-4,5,6,7-tetrahydro-1H-imidazo[4,5-c]pyridin-2-yl)methanone] gave an IC50 of 25 to 100 nM.

In the case of `Cc1c(NC(=O)CCN2CCC(O)C2)cccc1-c1cccc2c1CCN2C(=O)c1nc2c(n1C)CN(CC(=O)O)CC2` (centres unmarked) [Example 20, 2-(2-(4-(3-(3-(3-hydroxypyrrolidin-1-yl)propanamido)-2-methylphenyl)indoline-1-carbonyl)-3-methyl-3,4,6,7-tetrahydro-5H-imidazo[4,5-c]pyridin-5-yl)acetic acid], the IC50 is reported as no more than 25 nM.

`O=C(O)CN1CCc2nc(C(=O)N3CCCc4c(-c5ccccc5)cccc43)sc2C1` [Example 28, 2-(2-(5-phenyl-1,2,3,4-tetrahydroquinoline-1-carbonyl)-6,7-dihydrothiazolo[5,4-c]pyridin-5(4H)-yl)acetic acid] gave an IC50 of 25 to 100 nM.

In the case of `Cc1c(NC(=O)c2nccs2)cccc1-c1cccc2c1CCN2C(=O)c1nc2c(s1)CN(CC(=O)O)CC2` [Example 26, 2-(2-(4-(2-methyl-3-(thiazole-2-carboxamido)phenyl)indoline-1-carbonyl)-6,7-dihydrothiazolo[5,4-c]pyridin-5(4H)-yl)acetic acid], the IC50 is reported as no more than 25 nM.

`O=C(O)CN1CCc2nc(C(=O)N3CCc4c(-c5cccc(OCCCCN6CCC(O)C6)c5)cccc43)sc2C1` (centres unmarked) [Example 9, 2-(2-(4-(3-(4-(3-hydroxypyrrolidin-1-yl)butoxy)phenyl)indoline-1-carbonyl)-6,7-dihydrothiazolo[5,4-c]pyridin-5(4H)-yl)acetic acid] was tested, and the IC50 was no more than 25 nM.

Work on `Cc1c(OCCCN2CCCC2)cccc1-c1cccc2c1CCN2C(=O)c1ncc(CNCCO)s1` [Example 45, (5-(((2-hydroxyethyl)amino)methyl)thiazol-2-yl)(4-(2-methyl-3-(3-(pyrrolidin-1-yl)propoxy)phenyl)indolin-1-yl)methanone] yielded an IC50 of no more than 25 nM.
